Measurements: patent publication US20160067221A1, “USE OF ERGOTHIONEINE FOR INDUCING ACTIVITY OF NRF2 IN CELL” (China Medical University, priority 2014, published 2016)

What was measured:
Assay type in all cases: cell-based, human
[1] = system: Nrf2 knockdown HaCaT cells; experiment: TUNEL apoptosis in siRNA-transfected HaCaT cells
Procedure: (§1) The siRNA transfection includes steps as follows. The HaCaT cells are seeded in a 6-well plate with 4×10^5 cells/well and then maintained at 37° C. in the humidified atmosphere of 5% CO2 untill the time of the transfection. The day after reaching 40-60% confluence, the culture medium is replaced with 1 mL of FBS-free and antibiotic-free culture medium in each well, and the HaCaT cells are transfected with a siNrf2 or a control siRNA by using Lipofectamine 2000 (Invitrogen, U.S.A.) for 4-6 hours. After the incubation for 4-6 hours, the HaCaT cells are washed with the culture medium supplemented with 10% FBS 2-3 times, and then cultured in the culture medium supplemented with 10% FBS for 12-16 hours.

HaCaT cells = experiment: Comet assay (DNA damage); conditions: for Toxicity Scale 0 (comets in class 0) / Toxicity Scale 1 (comets in class 1) / Toxicity Scale 2 (comets in class 2) / Toxicity Scale 3 (comets in class 3) / Toxicity Scale 4 (comets in class 4): per 100 comets
Text: The exposure of the UVA can cause a DNA damage. To examine the effect of the ergothioneine on the UVA-induced DNA damage, we use a comet assay to analyze the DNA damage. The comet assay involves an encapsulation of the cells in a low-melting-point agarose suspension, the cells lysis in alkaline (pH>13) conditions, a short-term electrophoresis of the suspended lysed cells, and a stained DNA of an electrophoretic stripe using the fluorescent dye. The term “comet” refers to a pattern of a DNA migration through the electrophoresis gel, wherein the DNA migration is caused by a DNA cleavage fragment of the damaged cell released from its nucleus, and the DNA cleavage fragment moves faster than the nucleus of a non-damaged cell in an electric field and results in structure resembling the comet. […] Then, the HaCaT cells are performed the comet assay and stained by red fluorescent dye. The pattern of the nucleus of the damaged cell resembles the comet in the comet assay, which is caused by the DNA cleavage fragment of the damaged cell. In contrast, the pattern of the nucleus of the normal cell, which has non-DNA cleavage fragment, is spherical in the comet assay. […] In FIG. 4 and Table 1, the UVA irradiation (15 J/cm^2) for 4 hours triggers the DNA breakage of the nucleus shown as the tail. The overall score of the group treated with the UVA irradiation alone is 356.3±2.1. […] Therefore, the ergothioneine can inhibit the DNA damage and has a protective property.

[2] = system: antioxidant response element (ARE); experiment: ARE luciferase gene reporter assay; conditions: HaCaT cells treated for 4 hours, vs untreated
Text: The Nrf2 binds to the small Maf after translocating into the nucleus. […] Given that the ergothioneine treatment to the HaCaT cells can promote the Nrf2 translocating into the nucleus; this example next investigates whether the ARE transcriptional activity can be started by using a luciferase gene reporter assay. The luciferase gene reporter assay is transfected a plasmid containing the ARE gene and a luciferase gene into the HaCaT cells, wherein the luciferase gene is a reporter gene. An internal standard of the luciferase gene reporter assay is β-galactosidase, and a luminescence intensity is measured by Dual Light Kit (Applied Biosystems).

[3] = system: Nrf2 knockdown HaCaT cells; experiment: MTT cell viability in siRNA-transfected HaCaT cells; conditions: 500 nM 24 hours, UVA 15 J/cm^2 4 hours
Procedure: as §1
The HaCaT cells are incubated with 500 nM ergothioneine for 24 hours after the siRNA transfection.

Nrf2 = experiment: Western blot in Nrf2 knockdown HaCaT cells (siRNA transfection); conditions: Nrf2 siRNA transfected cells, 500 nM ergothioneine 24 hours
Text: The Nrf2 is an important transcription factor, the downstream antioxidant enzymes are regulated by the Nrf2 transcription gene. To examine protective effects of the ergothioneine on the HaCaT cells indeed through the Nrf2 activation, we developed an Nrf2 gene knockdown model in the HaCaT cells by a siRNA transfection in this example. Then, the expression of the downstream antioxidant gene is observed to investigate whether the protective properties of the ergothioneine will be affected.
as §1
After the siRNA transfection, the HaCaT cells are treated with 500 nM ergothioneine for 24 hours. After the ergothioneine treatment, the HaCaT cells are subjected to analyses of the protein express on of the Nrf2 in 1 hour post-treatment and the protein expressions of HO-1 γ-GCLC and NQO-1 in 4 hours post-treatment by the Western blot analysis. FIG. 13-(A) illustrates the effect of the ergothioneine on protein expression of the Nrf2 in Nrf2 knockdown HaCaT cells by using the siRNA transfection.

[4] = system: UVA-irradiated HaCaT cells; experiment: Western blot of apoptosis-related proteins (Caspase-3, Caspase-9, Bax, Bcl-2); conditions: 125-500 nM 24 hours prior to UVA 15 J/cm^2, 4 hours
Procedure: The apoptosis can induce DNA double-strand breaks to generate a DNA fragment, To examine the effect of the ergothioneine on the UVA-induced apoptosis, an apoptotic cell death is measured using a terminal deoxyucleotidyl transferase-meditated dUTP-fluorescein nick end-labeking (TUNEL) assay, and protein expressions of apoptosis-related proteins, Caspase-3, Caspase-9, Bax and Bcl-2, are measured using a Western blot analysis. Therefore, the aforementioned methods in this example can analyze whether pretreating with the ergothioneine improves the UVA-induced apoptosis. […] After incubation, the HaCaT cells are exposed to the UVA (15 J/cm^2), and then incubated for 4 hours. Then, the protein expressions of Caspase-3, Caspase-9, Bax and Bcl-2 are measured using the Western blot analysis. FIG. 6 illustrates the effect of the ergothioneine on the protein expressions of apoptosis-related proteins of the UVA-irradiated HaCaT cells. FIG. 6-(A) represents the Western blot analysis results. FIG. 6-(B) is the quantitative diagram of the protein expressions of Caspase-3 and Caspase-9. FIG. 6-(C) is the quantitative diagram of a Bax/Bcl-2 ratio.

In the case of `C[N+](C)(C)[C@@H](Cc1c[nH]c(=S)[nH]1)C(=O)[O-]` [ergothioneine, 2-mercapto histidine trimethylbetain], the “UVA-induced apoptosis (TUNEL)” value ([1]; Nrf2 siRNA, ergothioneine pretreatment, UVA) is reported as “unable to improve the UVA-induced apoptosis”, the “apoptosis (TUNEL)” value ([1]; control siRNA, ergothioneine prior to UVA, vs UVA alone) is reported as “significantly decreased” and the “Total Damage (overall comet score, 0-400)” value (from here on “Total Damage”) (HaCaT cells; 250 nM + 15 J/cm^2 UVA) is reported as 144 ± 10. For the same compound, the “Toxicity Scale 0 (comets in class 0)” value (HaCaT cells; 250 nM + 15 J/cm^2 UVA) was 20 ± 1, the “Toxicity Scale 1 (comets in class 1)” value (HaCaT cells; 250 nM + 15 J/cm^2 UVA) was 27 ± 6 and the “Toxicity Scale 2 (comets in class 2)” value (HaCaT cells; 250 nM + 15 J/cm^2 UVA) was 52 ± 9. The “Toxicity Scale 3 (comets in class 3)” value (HaCaT cells; 250 nM + 15 J/cm^2 UVA) was 0 ± 0, the “Toxicity Scale 4 (comets in class 4)” value (HaCaT cells; 250 nM + 15 J/cm^2 UVA) was 0 ± 0 and the “Total Damage” value (HaCaT cells; 250 nM, no UVA) was 14 ± 4. The “Toxicity Scale 0 (comets in class 0)” value (HaCaT cells; 250 nM, no UVA) was 88 ± 4, the “Toxicity Scale 1 (comets in class 1)” value (HaCaT cells; 250 nM, no UVA) was 10 ± 4 and the “Toxicity Scale 2 (comets in class 2)” value (HaCaT cells; 250 nM, no UVA) was 2 ± 2. The “Toxicity Scale 3 (comets in class 3)” value (HaCaT cells; 250 nM, no UVA) was 0 ± 0, the “Toxicity Scale 4 (comets in class 4)” value (HaCaT cells; 250 nM, no UVA) was 0 ± 0 and the “Total Damage” value (HaCaT cells; 500 nM + 15 J/cm^2 UVA) was 59.0±7.0. For the same compound, the “Total Damage” value (HaCaT cells; 500 nM + 15 J/cm^2 UVA, listed as EGT) was 59 ± 7, the “Toxicity Scale 0 (comets in class 0)” value (HaCaT cells; 500 nM + 15 J/cm^2 UVA) was 49 ± 7 and the “Toxicity Scale 1 (comets in class 1)” value (HaCaT cells; 500 nM + 15 J/cm^2 UVA) was 43 ± 8. The “Toxicity Scale 2 (comets in class 2)” value (HaCaT cells; 500 nM + 15 J/cm^2 UVA) was 8 ± 1, the “Toxicity Scale 3 (comets in class 3)” value (HaCaT cells; 500 nM + 15 J/cm^2 UVA) was 0 ± 0 and the “Toxicity Scale 4 (comets in class 4)” value (HaCaT cells; 500 nM + 15 J/cm^2 UVA) was 0 ± 0. The “Total Damage” value (HaCaT cells; 500 nM, no UVA) was 22 ± 6, the “Toxicity Scale 0 (comets in class 0)” value (HaCaT cells; 500 nM, no UVA) was 81 ± 6 and the “Toxicity Scale 1 (comets in class 1)” value (HaCaT cells; 500 nM, no UVA) was 16 ± 7. The “Toxicity Scale 2 (comets in class 2)” value (HaCaT cells; 500 nM, no UVA) was 3 ± 2, the “Toxicity Scale 3 (comets in class 3)” value (HaCaT cells; 500 nM, no UVA) was 0 ± 0 and the “Toxicity Scale 4 (comets in class 4)” value (HaCaT cells; 500 nM, no UVA) was 0 ± 0. The “luciferase activity derived from the ARE promoter” value [2] was “increased”, the UVA-induced cell death ([3]; Nrf2 siRNA) was “unable to ameliorate the UVA-induced cell death” and the UVA-induced cell death ([3]; control siRNA) was “able to reduce a UVA-induced cell death”. For the same compound, the “expression of HO-1” value (Nrf2) was “not shown the increased expression”, the “expression of NQO-1” value (Nrf2) was “not shown the increased expression” and the “expression of γ-GCLC” value (Nrf2) was “not shown the increased expression”. The Bax/Bcl-2 ratio [4] was “significantly reduced”, the “protein expression of Caspase-3” value [4] was “significantly reduced” and the “protein expression of Caspase-9” value [4] was “significantly reduced”.
